Values of other authors as cited in US20110236307A1, “IN VIVO IMAGING METHOD” (priority 2008, published 2011).

Tested on: protein deposition in PD
Settings: PD patients, brain

[11CH3]Nc1ccc(-c2nc3ccc(O)cc3s2)cc1 [[^11C]PIB, ^11C-6-OH-benzothiazole]
in vivo binding pattern: decreased from the brainstem to the cortical areas
